# Laboratory results as given in patent publication US8609591B2, “Herbicidal composition” (Ishihara Sangyo Kaisha, Ltd., priority 2010, dated 2013).
# Where two headings read alike, the source gives them in different places.
# What was measured:
# [1] = test system: velvetleaf (Abutilon theophrasti MEDIC.); experiment: Foliar treatment pot test, growth inhibition rate visually observed; assay type: in vivo; conditions: for inhibition at 18.75 g/ha / inhibition at 37.5 g/ha: 8 DAT
# Method: (§1) Upland field soil was put into a 1/1,000,000 hectare pot, and seeds of various plants (barnyardgrass (Echinochloa crus-galli L.) and velvetleaf (Abutilon theophrasti MEDIC.) were sown. When the respective plants reached predetermined leaf stage, herbicidal compositions in predetermined amounts were diluted with water in an amount corresponding to 300 L/ha and applied for foliar treatment by a small sprayer.
# (§2) On the 8 to 14 days after treatment (DAT), the state of growth of the respective plants was visually observed to determine the growth inhibition rate (measured value) in accordance with the following evaluation standard. Further, in accordance with the Colby's formula, the growth inhibition rate (calculated value) was calculated. In Tables, with respect to the benzoylpyrazole compound represented by the formula (I), Compound Nos. in Table 1 are described, and with respect to other compounds, common names are described. […]
# [2] = test system: barnyardgrass (Echinochloa crus-galli L.); experiment: as above; assay type: in vivo; conditions: for inhibition at 18.75 g/ha / inhibition at 37.5 g/ha: 8 DAT
# Method: as §1, §2
# [3] = 192 h, 1.8 to 2.4 leaf stage, foliar treatment, Table 2-2, read-out: Growth inhibition rate (%) of velvetleaf, Measured value
# [4] = 192 h, 1.8 to 2.4 leaf stage, foliar treatment, Table 2-6, read-out: Growth inhibition rate (%) of velvetleaf, Measured value
# [5] = 192 h, 2.6 to 3.2 leaf stage, foliar treatment, Table 2-4, read-out: Growth inhibition rate (%) of velvetleaf, Measured value
# [6] = 192 h, 2.6 to 3.2 leaf stage, foliar treatment, Table 2-11, read-out: Growth inhibition rate (%) of velvetleaf, Measured value
# [7] = 192 h, 2.6 to 3.2 leaf stage, foliar treatment, Table 2-13, read-out: Growth inhibition rate (%) of velvetleaf, Measured value
# [8] = 192 h, 2.8 to 3.4 leaf stage, foliar treatment, Table 2-5, read-out: Growth inhibition rate (%) of barnyardgrass, Measured value
# [9] = 192 h, 2.8 to 3.4 leaf stage, foliar treatment, read-out: Growth inhibition rate (%) of barnyardgrass, Measured value
# [10] = 192 h, 3.6 to 4.5 leaf stage, foliar treatment, Table 2-3, read-out: Growth inhibition rate (%) of barnyardgrass, Measured value
# [11] = 192 h, 3.6 to 4.5 leaf stage, foliar treatment, Table 2-10, read-out: Growth inhibition rate (%) of barnyardgrass, Measured value
# [12] = 192 h, 3.6 to 4.5 leaf stage, foliar treatment, Table 2-12, read-out: Growth inhibition rate (%) of barnyardgrass, Measured value
# [13] = 192 h, read-out: Growth inhibition rate (%) of velvetleaf, Measured value
# [14] = 192 h, read-out: Growth inhibition rate (%) of barnyardgrass, Measured value
smiles,measurement,setting,value
CC(C)c1nn(C(=O)NC(C)(C)C)c(=O)n1N [Amicarbazone],inhibition at 18.75 g/ha,[1]; [3],40%
same,inhibition at 18.75 g/ha,[1]; [4],40%
same,inhibition at 18.75 g/ha,[1]; [5],50%
same,inhibition at 18.75 g/ha,[1]; [6],50%
same,inhibition at 18.75 g/ha,[1]; [7],50%
same,inhibition at 37.5 g/ha,[1]; [3],45%
same,inhibition at 37.5 g/ha,[1]; [4],45%
same,inhibition at 37.5 g/ha,[1]; [5],60%
same,inhibition at 37.5 g/ha,[1]; [6],60%
same,inhibition at 37.5 g/ha,[1]; [7],60%
same,inhibition at 30 g/ha,"[1]; 336 h, 30 g/ha, 4 to 4.5 leaf stage, 14 DAT, foliar treatment, read-out: Growth inhibition rate (%) of velvetleaf, Measured value",35%
same,inhibition at 50 g/ha,"[1]; 336 h, 50 g/ha, 4 to 4.5 leaf stage, 14 DAT, foliar treatment, read-out: Growth inhibition rate (%) of velvetleaf, Measured value",55%
same,inhibition at 75 g/ha,"[1]; 336 h, 75 g/ha, 4 to 4.5 leaf stage, 14 DAT, foliar treatment, read-out: Growth inhibition rate (%) of velvetleaf, Measured value",55%
same,inhibition at 18.75 g/ha,[2]; [8],30%
same,inhibition at 18.75 g/ha,[2]; [9],30%
same,inhibition at 18.75 g/ha,[2]; [10],20%
same,inhibition at 18.75 g/ha,[2]; [11],20%
same,inhibition at 18.75 g/ha,[2]; [12],20%
same,inhibition at 37.5 g/ha,[2]; [8],50%
same,inhibition at 37.5 g/ha,[2]; [9],50%
same,inhibition at 37.5 g/ha,[2]; [10],25%
same,inhibition at 37.5 g/ha,[2]; [11],25%
same,inhibition at 37.5 g/ha,[2]; [12],25%
same,inhibition at 75 g/ha,"[2]; 264 h, 75 g/ha, 3.2 to 4.1 leaf stage, 11 DAT, foliar treatment, read-out: Growth inhibition rate (%) of barnyardgrass, Measured value",40%
same,inhibition at 150 g/ha,"[2]; 264 h, 150 g/ha, 3.2 to 4.1 leaf stage, 11 DAT, foliar treatment, read-out: Growth inhibition rate (%) of barnyardgrass, Measured value",73%
same,inhibition at 30 g/ha,"[2]; 336 h, 30 g/ha, 4.2 to 5.3 leaf stage, 14 DAT, foliar treatment, read-out: Growth inhibition rate (%) of barnyardgrass, Measured value",0%
same,inhibition at 50 g/ha,"[2]; 336 h, 50 g/ha, 4.2 to 5.3 leaf stage, 14 DAT, foliar treatment, read-out: Growth inhibition rate (%) of barnyardgrass, Measured value",0%
same,inhibition at 75 g/ha,"[2]; 336 h, 75 g/ha, 4.2 to 5.3 leaf stage, 14 DAT, foliar treatment, read-out: Growth inhibition rate (%) of barnyardgrass, Measured value",15%
CS(=O)(=O)c1ccc(C(=O)C2C(=O)CCCC2=O)c(Cl)c1 [Sulcotrione],inhibition at 75 g/ha,[1]; [13],30%
same,inhibition at 150 g/ha,[1]; [13],30%
same,inhibition at 75 g/ha,[2]; [14],40%
same,inhibition at 150 g/ha,[2]; [14],45%
Cc1c(C(=O)c2cnn(C)c2O)ccc(S(C)(=O)=O)c1C1=NOCC1 [Topramezone],inhibition at 7 g/ha,[1]; [13],30%
same,inhibition at 15 g/ha,[1]; [13],30%
same,inhibition at 7 g/ha,[2]; [14],40%
same,inhibition at 15 g/ha,[2]; [14],40%
